In data set [1] the target is T1, Inhibitor of nuclear factor kappa-B kinase subunit epsilon (Homo sapiens) (UniProt Q14164).
T1 sequence (whole entry): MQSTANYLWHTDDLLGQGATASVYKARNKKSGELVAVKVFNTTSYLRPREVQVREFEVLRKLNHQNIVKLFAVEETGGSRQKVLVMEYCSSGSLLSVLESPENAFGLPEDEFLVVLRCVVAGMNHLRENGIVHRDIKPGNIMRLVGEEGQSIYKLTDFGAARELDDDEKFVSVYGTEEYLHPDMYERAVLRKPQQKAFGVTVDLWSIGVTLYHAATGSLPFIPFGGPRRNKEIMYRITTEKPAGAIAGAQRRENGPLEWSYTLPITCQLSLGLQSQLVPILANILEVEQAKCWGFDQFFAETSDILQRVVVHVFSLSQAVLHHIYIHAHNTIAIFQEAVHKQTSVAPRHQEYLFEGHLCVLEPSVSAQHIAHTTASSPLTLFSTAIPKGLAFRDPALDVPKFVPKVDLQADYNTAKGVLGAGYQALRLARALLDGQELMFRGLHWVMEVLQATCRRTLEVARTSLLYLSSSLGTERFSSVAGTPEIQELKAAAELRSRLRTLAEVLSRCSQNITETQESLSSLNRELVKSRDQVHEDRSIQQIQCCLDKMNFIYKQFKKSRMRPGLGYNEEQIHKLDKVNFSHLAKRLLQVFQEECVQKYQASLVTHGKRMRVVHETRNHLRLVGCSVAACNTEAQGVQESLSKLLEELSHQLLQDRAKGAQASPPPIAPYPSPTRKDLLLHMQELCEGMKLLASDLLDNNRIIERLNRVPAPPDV
Put plainly: Inhibition of IKK-epsilon (unknown origin) using fluorescein-labelled DRHDSGLDSMKDE as substrate after 1 hr by TR-FRET assay.

Data set [2] addresses T2, Serine/threonine-protein kinase TBK1 (Homo sapiens) (UniProt Q9UHD2).
T2 sequence (whole entry): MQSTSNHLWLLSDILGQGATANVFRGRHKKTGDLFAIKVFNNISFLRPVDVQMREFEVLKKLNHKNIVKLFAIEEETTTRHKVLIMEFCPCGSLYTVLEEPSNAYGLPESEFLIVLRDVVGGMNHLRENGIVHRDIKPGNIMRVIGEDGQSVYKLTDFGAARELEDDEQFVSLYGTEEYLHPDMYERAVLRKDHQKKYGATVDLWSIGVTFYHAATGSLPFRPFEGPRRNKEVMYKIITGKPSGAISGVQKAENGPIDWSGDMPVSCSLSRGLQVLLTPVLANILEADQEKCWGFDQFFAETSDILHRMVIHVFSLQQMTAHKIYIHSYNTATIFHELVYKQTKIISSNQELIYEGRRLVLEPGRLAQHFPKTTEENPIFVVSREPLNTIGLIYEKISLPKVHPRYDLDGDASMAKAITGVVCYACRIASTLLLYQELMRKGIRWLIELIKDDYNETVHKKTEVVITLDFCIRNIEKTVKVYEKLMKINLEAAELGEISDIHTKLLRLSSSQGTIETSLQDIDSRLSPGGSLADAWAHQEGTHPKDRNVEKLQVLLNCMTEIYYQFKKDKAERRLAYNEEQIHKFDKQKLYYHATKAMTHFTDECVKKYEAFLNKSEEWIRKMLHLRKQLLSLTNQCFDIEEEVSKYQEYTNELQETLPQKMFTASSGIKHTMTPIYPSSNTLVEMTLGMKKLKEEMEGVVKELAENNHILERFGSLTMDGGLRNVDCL
In words: Inhibition of TBK1 (unknown origin) using fluorescein-labelled DRHDSGLDSMKDE as substrate after 1 hr by TR-FRET assay.

Data set [3] is described as follows: Half life in Balb/c mouse at 0.5 mg/kg, iv by mass spectrometry. Format: ADME, organism-based. The note with it: in vivo.
Data set [4] in a line: Volume of distribution in Balb/c mouse at 0.5 mg/kg, iv by mass spectrometry. The class given is ADME, organism-based. Particulars: in vivo.
For data set [5], the target named is Serine/threonine-protein kinase SIK2 (Homo sapiens) (UniProt Q9H0K1). Put plainly: Inhibition of human SIK2 using AMARAASAAALARRR as substrate in presence of [gamma33P]ATP by kinase hotspot assay.
Chain of Serine/threonine-protein kinase SIK2 (Homo sapiens) (Q9H0K1 whole entry, looked up): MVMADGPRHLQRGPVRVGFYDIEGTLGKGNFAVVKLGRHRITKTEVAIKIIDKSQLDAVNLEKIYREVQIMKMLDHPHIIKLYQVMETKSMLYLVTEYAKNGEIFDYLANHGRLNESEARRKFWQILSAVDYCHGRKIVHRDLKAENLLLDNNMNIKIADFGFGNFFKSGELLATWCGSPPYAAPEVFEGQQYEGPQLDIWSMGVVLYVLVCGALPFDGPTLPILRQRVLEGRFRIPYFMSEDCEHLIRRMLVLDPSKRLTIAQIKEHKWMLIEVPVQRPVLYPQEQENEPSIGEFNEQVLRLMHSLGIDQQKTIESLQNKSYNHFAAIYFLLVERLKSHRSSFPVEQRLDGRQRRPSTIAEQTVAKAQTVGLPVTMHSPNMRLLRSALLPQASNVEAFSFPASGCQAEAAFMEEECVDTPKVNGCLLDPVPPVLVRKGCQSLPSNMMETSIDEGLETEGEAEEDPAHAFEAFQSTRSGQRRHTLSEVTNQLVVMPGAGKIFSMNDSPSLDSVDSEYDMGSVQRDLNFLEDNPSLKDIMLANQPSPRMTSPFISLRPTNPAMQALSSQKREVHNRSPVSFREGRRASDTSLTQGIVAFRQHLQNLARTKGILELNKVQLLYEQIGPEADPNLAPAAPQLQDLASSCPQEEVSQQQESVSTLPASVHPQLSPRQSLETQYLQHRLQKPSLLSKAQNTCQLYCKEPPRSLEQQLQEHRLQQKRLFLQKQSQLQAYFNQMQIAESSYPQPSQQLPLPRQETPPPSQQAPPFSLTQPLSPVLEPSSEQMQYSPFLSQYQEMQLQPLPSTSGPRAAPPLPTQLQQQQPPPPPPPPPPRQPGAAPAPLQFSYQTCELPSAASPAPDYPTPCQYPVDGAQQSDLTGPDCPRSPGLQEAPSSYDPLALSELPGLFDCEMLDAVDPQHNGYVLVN

On to `N#Cc1cc(-c2ccnc(Nc3ccc(NC(=O)CN4CCOCC4)nc3)n2)cnc1N1CC[C@H](F)C1`, for which the INH in data set [1] and in data set [2] was less than 30 nM throughout. The compound further gave a half-life in data set [3] of 30 min.

Turning to `CCN1CCN(Cc2ccc(Nc3nccc(-c4cnc(N5CC[C@@H](F)C5)c(C#N)c4)n3)cn2)CC1`, the INH in data set [1] was found to be 21 nM; in data set [2], 20 nM.

For the compound `N#Cc1cc(-c2ccnc(Nc3ccc(CN4CCNC(=O)C4)nc3)n2)cnc1N1CC[C@H](F)C1`, the INH in data set [1] and in data set [2] was less than 15 nM throughout.

With `N#Cc1cc(-c2ccnc(Nc3ccc(CN4CCOCC4)nc3)n2)cnc1N1CC[C@H](F)C1`, the INH in data set [1] and in data set [2] was less than 15 nM each time. The same compound had a Vd in data set [4] of 0.3 L/kg. Further, the half-life in data set [3] was 30 min.

Turning to `CN1CCN(Cc2ccc(Nc3nccc(-c4cnc(N5CC[C@H](F)C5)c(C#N)c4)n3)cn2)CC1`, the INH was 24 nM in data set [1] and 17 nM in data set [2].

Take `CCN1CCN(Cc2ccc(Nc3nccc(-c4cnc(N5CC[C@H](F)C5)c(C#N)c4)n3)cn2)CC1`: the INH in data set [1] came out at 16 nM; in data set [2], 9 nM; in data set [5] it was 7 nM.

As a reminder, the half-life is how long it takes for the measured level to halve. Higher therefore signals slow decline. By Vd is commonly meant a proportionality between amount in the body and measured concentration, not a real space. Low values mean confinement near the circulation, high ones extensive tissue distribution.

Source of the values: ChEMBL document CHEMBL4266054, “Kinase Inhibitors for Treatment of Cancer and Inflammation” (ACS Med Chem Lett, 2018).
